Results as given in publication PMC8838787, “The Antiproliferative and Apoptotic Effects of a Novel Quinazoline Carrying Substituted-Sulfonamides: In Vitro and Molecular Docking Study” (Molecules, 2022).

What was measured:
[1] = test system: LoVo (colon) cancer cells; assay: MTT cell viability assay, LoVo; assay type: cell-based; details: Homo sapiens, 48 h, average ± SD (n = 3)
Description: Compounds 4a–n were subjected to the cytotoxicity screening of the cell lines MCF-7 (breast), LoVo (colon), HepG2 (liver) and A549 (lung) carcinoma cells as well as HUVEC normal cell lines. The MTT assay was employed to assess cytotoxicity after 48 h of treatment with different concentrations of each compound and doxorubicin was used as a reference drug. The results were presented in Table 1 as growth inhibitory concentration (IC50 values).
Cell viability was determined using 3-(4,5-dimethylthiazol-2-yl)-2,5-diphenyl tetrazolium bromide (MTT) assay as stated previously. In brief, A549 (lung), HepG2 (liver), LoVo (colon), MCF-7 (breast) cancer cells as well as normal cells (HUVEC) were seeded in 96-well plates (10^5 per well) and compounds were added in a different final concentration. All cells were treated for 48 h, and then 10μL of MTT reagent (5 mg/mL) was added to each well and further incubated for 4 h. Thereafter, 0.1 mL of acidified isopropanol was added to solubilize formazan product and the developed color was measured at 570 nm in Microplate ELISA Reader (BioTek, Elx-800, Winooski, VT, USA). The IC50 values (concentration required for 50% inhibition of cell viability) were calculated using dose response curve. Cell viability was calculated as = (Ab Treated/Ab Control) × 100.
The A549, HepG2, LoVo and MCF-7 cancer cell lines were obtained from the German Collection of Microorganisms and Cell Cultures (DSMZ) (Braunschweig, Germany). For Human umbilical vein endothelial cells (HUVEC cells), it was purchased from American Type Culture Collection (16549; Cat no. PCS-100-010; ATTCC, Manassas, VA, USA).

[2] = test system: caspase 7; assay: RT-PCR of apoptotic genes, caspase 7; assay type: cell-based, human; details: 24 h, relative to untreated cells
Description: We next used reverse transcription polymerase chain reaction (RT-PCR) and Western blot analysis to look at Bax (proapoptotic), Bcl-2 (antiapoptotic) and caspase 7 (executioner caspase) expression at gene and protein level as an additional marker of apoptosis occurrence. In fact, apoptotic cell death is mostly directed by the levels of Bcl-2 family, whether they are pro-apoptotic or antiapoptotic and targeting these molecules as a therapeutic strategy is continuously under development. As predicted, we observed an upregulation in the expression of Bax in MCF-7 treated cells to (1.7-, 2- and 2.4-fold) with compound 4d and to (1.2-, 1.4- and 1.6-fold) with compound 4f at (1.25, 2.5 and 5 µM) respectively (Figure 6). […] This shifting in Bax to Bcl-2 ratio usually started caspases activation which plays a critical role in apoptosis execution. Among all caspases, caspase 7 is considered as one of the most crucial executioner caspases that mediate cell death, and its expression strongly correlates with apoptosis stimulation.
The MCF-7 cells (0.1 × 10^6) in 12 well plates were treated with different concentrations of compounds 4d and 4f for 24 h and untreated cells were used as a control. After 24 h of treatment, cell culture media was removed and the cells were lysed with Trizol (Invitrogen, Waltham, MA, USA), and total RNA was extracted from all the samples [42]. The RNA was estimated by Nano-drop and 1 µg of RNA was used in the cDNA synthesis. The cDNA was synthesized from RNA by using a cDNA synthesis kit (Invitrogen, Thermo Fisher Scientific, lnc., Waltham, MA, USA) according to the manufacturer’s instruction. After Reverse transcription at 42 °C for 60 min, RT-PCR was performed using 5× Firepol Master Mix ready to load (Solis BioDyne) according to manufacturer’s instruction. RT-PCR was used to analyze the gene expression level of P53, Bcl2, Bax and caspase 7 using specific sets of primers for each gene, while β-actin was utilized as a housekeeping gene. The program was run as follows, initial denaturation at 95 °C for 5 min; denaturation at 95 °C for 30 s; annealing at 55 °C for 45 s; elongation at 72 °C for 45 s (30 Cycles) and final extension at 72 °C for 10 min. The RT-PCR products were electrophoresed on a 1.2% agarose gel containing ethidium bromide and the gel was imaged on a Licor machine.

IC50 [1]	Structure (SMILES)	expression of caspase 7 (RT-PCR) ([2]; MCF-7, 2.5 µM)	expression of caspase 7 (RT-PCR) ([2]; MCF-7, 5 µM)
6.87 ± 0.62 µM	COc1cccc2c(=O)n(-c3ccc(S(=O)(=O)NCC(=O)Nc4ccc(C)cc4)cc3)c(SCC(=O)Nc3ccc(C)cc3)nc12 [Compound 4d]	1.35 fold	1.58 fold
9.76 ± 1.68 µM	CCc1cccc(NC(=O)CNS(=O)(=O)c2ccc(-n3c(SCC(=O)Nc4cccc(CC)c4)nc4c(OC)cccc4c3=O)cc2)c1 [Compound 4f, N-(3-ethylphenyl)-2-((3-(4-(N-(2-((3-ethylphenyl)amino)-2-oxoethyl)sulfamoyl)-phe-nyl)-8-methoxy-4-oxo-3,4-dihydroquinazolin-2yl)thio)acetamide]	1.35 fold	1.58 fold
